Measured values taken from patent US8293682B2, “Growth regulators for gramineous weeds” (Rikengreen Co., Ltd., priority 2008, dated 2012).

Experiments:
[1] = test system: annual bluegrass (Poa annua L.); experiment: Test Example 4: field test in bent green turf, emerged ear number; format: in vivo; settings: applied Day 0 and after 30 days
Experimental: In a bent green turf where annual bluegrasses (Poa annua L.) were grown, a test zone of 1 m×1 m was provided. Benzyladenine (Beanine for painting; made by Rikengreen; containing 1% benzyladenine) and ethephon (Ethrel 10 soluble concentrate; Nissan Chemical Industries; containing 10% ethephon) were diluted in a predetermined amount of water, and a spreader (Riken Sprayzer (registered trade mark); made by Rikengreen) was added so as to be 1/1,000-fold concentration. The respectively diluted solutions were applied to each test zone at the first application (Day 0) at a dose as indicated in Table, and after a lapse of 30 days the second application was carried out. The amount of solution scattered was 100 mL/m^2 both in the first and second applications. The number of ear emergence of annual bluegrass (Poa annua L.) within the area of 10×10 cm was counted at regular intervals at 3 spots per zone. […] Dose means the amount at a single application.

[2] = test system: annual bluegrass (Poa annua L.); experiment: Test Example 3: number of emerged ears and leaves, poly-cup, two applications; format: in vivo; settings: 2nd application after 29 days
Experimental: At the initial stage of the ear emergence of annual bluegrass (Poa annua L.) grown in a poly-cup of 11 cm×11 cm, benzyladenine (Beanine for painting; made by Rikengreen; containing 1% benzyladenine) and ethephon (Ethrel 10 soluble concentrate; Nissan Chemical Industries; containing 10% ethephon) were diluted in a predetermined amount of water, and a spreader (Riken Sprayzer (registered trade mark); made by Rikengreen) was added so as to be 1/1,000-fold concentration; the respectively diluted solutions were applied by atomization at a dose as indicated in Table (scattered solution: 200 mL/m^2), and after a lapse of 29 days, the 2nd application was carried out. Then, the number of emerged ears of annual bluegrass (Poa annua L.) in the cup was counted. Further, the number of leaves [Leaf] of annual bluegrass (Poa annua L.) was counted within the area of 6 cm×6 cm in the cup. The test was carried out serially. […] Dose means the amount at a single application.

[3] = test system: southern crabgrasses (Digitaria ciliaris Koel.); experiment: Test Example 5: field test in Manilagrass turf, inhibitory effect for ear emergence; format: in vivo; settings: Ethephon 50 mg a.i./m^2
Experimental: In a Manilagrass (Zoysia matrella) turf where southern crabgrasses (Digitaria ciliaris Koel.) were grown, a test zone of 1 m×1 m was provided. Benzyladenine (Beanine for painting; made by Rikengreen; containing 1% benzyladenine) and ethephon (Ethrel 10 soluble concentrate; Nissan Chemical Industries; containing 10% ethephon) were diluted in a predetermined amount of water. The respectively diluted solutions were applied to each test zone at the first application (Day 0) at a dose as indicated in Table, and after a lapse of 17 days the second application was carried out. The first application was conducted before the ear emergence of southern crabgrasses (Digitaria ciliaris Koel.). The amount of solution scattered was 150 mL/m^2 both in the first and second applications. The inhibitory effect for the ear emergence of southern crabgrasses (Digitaria ciliaris Koel.) within the area of 1 m×1 m was evaluated according to the standard as described in Table 7. […] The symbol “●” in Table 8 indicates the treatment with each agent, and “−” means untreated. Dose means the amount at a single application.

lawn grasses = settings: Non-patent document 2; cited from earlier work
[4] = test system: annual bluegrass (Poa annua L.); experiment: Test Example 1: number of ear emergence, poly-cup, single or mixed application; format: in vivo
Experimental: At the initial stage of the ear emergence of annual bluegrass (Poa annua L.) grown in a poly-cup of 11 cm×11 cm, benzyladenine (Beanine for painting; made by Rikengreen; containing 1% benzyladenine) and ethephon (Ethrel 10 soluble concentrate; Nissan Chemical Industries; containing 10% ethephon) respectively as a single active ingredient or a mixture of them were diluted in a predetermined amount of water and applied by atomization so as to be a dose as indicated in Table. The application was carried out using 100 mL/m^2 of the solution to which a spreader (Riken Sprayzer (registered trade mark); made by Rikengreen) was added so as to be 1/1,000 fold. Inspection was made on Days 21, 32 and 45 after treatment with the agents to count the number of ear emergence in the cup. After completion of each inspection, clipping was performed.

[5] = Day 46, Benzyladenine + Ethephon 0 + 20 mg a.i./m^2
[6] = Day 46, Benzyladenine + Ethephon 0 + 40 mg a.i./m^2
[7] = Day 46, Benzyladenine + Ethephon 0 + 80 mg a.i./m^2

O=P(O)(O)CCCl [Ethephon, 2-chloroethylphosphonic acid]
Ear (mean emerged ear number within 10×10 cm) ([1]; Day 22, Ethephon 80, Benzyladenine 0 mg a.i./m^2): 53.7 | Ear (mean emerged ear number within 10×10 cm) ([1]; Day 22, Ethephon 160, Benzyladenine 0 mg a.i./m^2): 25.0 | Ear (mean emerged ear number within 10×10 cm) ([1]; Day 41, Ethephon 80, Benzyladenine 0 mg a.i./m^2): 57.3 | Ear (mean emerged ear number within 10×10 cm) ([1]; Day 41, Ethephon 160, Benzyladenine 0 mg a.i./m^2): 24.3 | Ear (mean emerged ear number within 10×10 cm) ([1]; Day 61, Ethephon 80, Benzyladenine 0 mg a.i./m^2): 68.7 | Ear (mean emerged ear number within 10×10 cm) ([1]; Day 61, Ethephon 160, Benzyladenine 0 mg a.i./m^2): 59.0 | Ear (number of emerged ears in the cup) ([2]; Day 23, Benzyladenine + Ethephon 0 + 20 mg a.i./m^2): 30 | Ear (number of emerged ears in the cup) ([2]; Day 23, Benzyladenine + Ethephon 0 + 40 mg a.i./m^2): 23 | Ear (number of emerged ears in the cup) ([2]; Day 23, Benzyladenine + Ethephon 0 + 80 mg a.i./m^2): 13 | Ear (number of emerged ears in the cup) [2, 5]: 34 | [Leaf] (number of leaves within 6 cm×6 cm) [2, 5]: [90] | Ear (number of emerged ears in the cup) [2, 6]: 27 | [Leaf] (number of leaves within 6 cm×6 cm) [2, 6]: [88] | Ear (number of emerged ears in the cup) [2, 7]: 29 | [Leaf] (number of leaves within 6 cm×6 cm) [2, 7]: [79] | Ear (number of emerged ears in the cup) ([2]; Day 53, Benzyladenine + Ethephon 0 + 20 mg a.i./m^2): 34 | Ear (number of emerged ears in the cup) ([2]; Day 53, Benzyladenine + Ethephon 0 + 40 mg a.i./m^2): 30 | Ear (number of emerged ears in the cup) ([2]; Day 53, Benzyladenine + Ethephon 0 + 80 mg a.i./m^2): 41 | Evaluation: index of inhibitory effect for ear emergence ([3]; Day 18, applied Day 0): 2 (20% or more-less than 30%) | Evaluation: index of inhibitory effect for ear emergence ([3]; Day 26, applied Day 0): 3 (30% or more-less than 40%) | Evaluation: index of inhibitory effect for ear emergence ([3]; Day 26, applied Day 0 and Day 17): 4 (40% or more-less than 50%) | Evaluation: index of inhibitory effect for ear emergence ([3]; Day 33, applied Day 0): 1 (10% or more-less than 20%) | Evaluation: index of inhibitory effect for ear emergence ([3]; Day 33, applied Day 0 and Day 17): 5 (50% or more-less than 60%) | Evaluation: index of inhibitory effect for ear emergence ([3]; Day 41, applied Day 0): 1 (10% or more-less than 20%) | Evaluation: index of inhibitory effect for ear emergence ([3]; Day 41, applied Day 0 and Day 17): 2 (20% or more-less than 30%) | extension of stolon and weight in lawn grasses (lawn grasses): promotes the extension of stolon and increase of the weight in lawn grasses | number of ear emergence in the cup ([4]; 21 Days after Application, Benzyladenine 0, Ethephon 40 mg a.i./m^2): 43 | number of ear emergence in the cup ([4]; 21 Days after Application, Benzyladenine 0, Ethephon 80 mg a.i./m^2): 47 | number of ear emergence in the cup ([4]; 21 Days after Application, Benzyladenine 0, Ethephon 160 mg a.i./m^2): 28 | number of ear emergence in the cup ([4]; 21 Days after Application, Benzyladenine 0, Ethephon 240 mg a.i./m^2): 29 | number of ear emergence in the cup ([4]; 21 Days after Application, Benzyladenine 0, Ethephon 320 mg a.i./m^2): 19 | number of ear emergence in the cup ([4]; 32 Days after Application, Benzyladenine 0, Ethephon 40 mg a.i./m^2): 38 | number of ear emergence in the cup ([4]; 32 Days after Application, Benzyladenine 0, Ethephon 80 mg a.i./m^2): 41 | number of ear emergence in the cup ([4]; 32 Days after Application, Benzyladenine 0, Ethephon 160 mg a.i./m^2): 32 | number of ear emergence in the cup ([4]; 32 Days after Application, Benzyladenine 0, Ethephon 240 mg a.i./m^2): 19 | number of ear emergence in the cup ([4]; 32 Days after Application, Benzyladenine 0, Ethephon 320 mg a.i./m^2): 15 | number of ear emergence in the cup ([4]; 45 Days after Application, Benzyladenine 0, Ethephon 40 mg a.i./m^2): 54 | number of ear emergence in the cup ([4]; 45 Days after Application, Benzyladenine 0, Ethephon 80 mg a.i./m^2): 51 | number of ear emergence in the cup ([4]; 45 Days after Application, Benzyladenine 0, Ethephon 160 mg a.i./m^2): 38 | number of ear emergence in the cup ([4]; 45 Days after Application, Benzyladenine 0, Ethephon 240 mg a.i./m^2): 39 | number of ear emergence in the cup ([4]; 45 Days after Application, Benzyladenine 0, Ethephon 320 mg a.i./m^2): 36
